In general, IC50 refers to the concentration that gives 50% inhibition. Higher therefore signals weaker potency in that assay.

From patent US5807986A, “Methods of making and screening betide libraries” (The Salk Institute For Biological Studies, priority 1995, dated 1998) come the findings set out here.

Where “and” joins values, the source holds several entries; their conditions need not be identical. Equal entries are not always repeated. Where a SMILES comes first, the peptide text is derived from it. [ ]: non-standard residue; d: D form. dPhe(4-NH2) = Nc1ccc(C[C@@H](N)C(=O)O)cc1; dPhe(4-Cl) = N[C@H](Cc1ccc(Cl)cc1)C(=O)O; Phe(4-NH2) = Nc1ccc(C[C@H](N)C(=O)O)cc1; d2Nal = N[C@H](Cc1ccc2ccccc2c1)C(=O)O; Lys(iPr) = CC(C)NCCCC[C@H](N)C(=O)O; d3Pal = N[C@H](Cc1cccnc1)C(=O)O

Data set [1] in a line: examination of rats for tolerance and gelling at the point of injection. Format: in vivo. The settings on record: rats of the anti-ovulation test, injected in bacteriostatic water. As for the experimental part: (§1) The betide is assayed in vivo to determine its effectiveness to prevent ovulation in female rats. In this test, a specified number of mature female Sprague-Dawley rats, e.g. five to ten, each having a body weight from 225 to 250 grams, are injected with a specified microgram dosage of the betide in bacteriostatic water at about noon on the day of proestrus. Proestrus is the […] of ovulation. A separate female rat group is used as a control to which the peptide is not administered. Each of the control female rats ovulates on the evening of proestrus; the number of the rats treated which ovulate is recorded. […] At a dosage of 1.0 microgram for isomer (1), all ovulate while for 1 μg of isomer (2), only 6 out of 14 rats ovulate and for 0.5 μg, 3 out of 4 rats ovulate. Isomer (2) is hereinafter referred to as Betide No. 1.

Data set [2] can be described thus: hydrophilicity by retention on RP-HPLC. Format: physicochemical.
In a further data set the target is T1, mSSTR1 (Mus musculus, UniProt P30873).
T1 construct: expressed in transfected cells; host or cells: COS and CHO cells
T1 sequence (P30873 whole entry): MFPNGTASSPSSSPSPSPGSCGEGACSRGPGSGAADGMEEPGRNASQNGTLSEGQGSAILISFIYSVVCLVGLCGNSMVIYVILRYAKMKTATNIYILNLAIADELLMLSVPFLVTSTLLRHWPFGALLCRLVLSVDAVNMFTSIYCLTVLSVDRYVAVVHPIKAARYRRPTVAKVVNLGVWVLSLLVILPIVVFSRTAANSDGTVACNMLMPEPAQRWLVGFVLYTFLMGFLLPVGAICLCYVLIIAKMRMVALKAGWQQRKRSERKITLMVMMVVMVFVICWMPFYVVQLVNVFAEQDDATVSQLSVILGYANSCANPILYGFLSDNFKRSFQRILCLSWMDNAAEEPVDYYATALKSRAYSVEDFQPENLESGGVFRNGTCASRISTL
The data set can be described thus: inhibition of radioligand binding to cloned SRIF receptor mSSTR1. Particulars: cloned mouse receptor expressed on COS and CHO cells. The protocol:
(§2) In vitro Bioassay: The effects of the various somatostatin analogs are tested in vitro for their ability to bind to isolated cloned receptors expressed on COS and CHO cells.
(§3) Five such receptor subtypes termed SSTR1 through SSTR5, have been cloned and are reported and described in Raynor et al., Molecular Pharmacology, 43, 838-844 (1993) and in Raynor et al., Molecular Pharmacology, 44, 385-392 (1993).

The target in another data set is T2, mSSTR2 (Mus musculus, UniProt P30875).
T2 construct: expressed in transfected cells; host or cells: COS and CHO cells
T2 sequence (P30875 whole entry): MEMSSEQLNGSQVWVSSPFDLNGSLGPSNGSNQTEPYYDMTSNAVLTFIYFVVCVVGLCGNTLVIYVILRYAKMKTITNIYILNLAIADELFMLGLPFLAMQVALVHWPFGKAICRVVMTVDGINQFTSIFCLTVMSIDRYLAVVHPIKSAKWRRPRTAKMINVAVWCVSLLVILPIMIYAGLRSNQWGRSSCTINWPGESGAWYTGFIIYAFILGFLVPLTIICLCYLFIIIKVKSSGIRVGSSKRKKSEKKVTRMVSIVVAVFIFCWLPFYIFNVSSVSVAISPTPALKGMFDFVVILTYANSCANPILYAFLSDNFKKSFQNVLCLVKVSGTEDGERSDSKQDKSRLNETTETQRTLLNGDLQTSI
Put plainly: inhibition of radioligand binding to cloned SRIF receptor mSSTR2. The settings on record: cloned mouse receptor expressed on COS and CHO cells. The protocol:
as §2, §3

In the next data set the target is T3, mSSTR3 (Mus musculus, UniProt P30935).
T3 construct: expressed in transfected cells; host or cells: COS and CHO cells
T3 sequence (P30935 whole entry): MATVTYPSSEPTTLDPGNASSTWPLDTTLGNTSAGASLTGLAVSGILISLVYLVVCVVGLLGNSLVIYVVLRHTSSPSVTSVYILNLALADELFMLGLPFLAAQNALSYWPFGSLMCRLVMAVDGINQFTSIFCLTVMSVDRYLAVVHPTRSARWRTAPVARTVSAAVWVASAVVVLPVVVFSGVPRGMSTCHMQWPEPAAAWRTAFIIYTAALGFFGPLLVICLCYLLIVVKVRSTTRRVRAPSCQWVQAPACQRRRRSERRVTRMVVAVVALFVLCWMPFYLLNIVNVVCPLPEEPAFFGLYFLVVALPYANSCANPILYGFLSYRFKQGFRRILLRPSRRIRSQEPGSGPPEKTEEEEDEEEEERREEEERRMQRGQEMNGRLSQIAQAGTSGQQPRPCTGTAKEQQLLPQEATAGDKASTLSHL
Put plainly: inhibition of radioligand binding to cloned SRIF receptor mSSTR3. Particulars: cloned mouse receptor expressed on COS and CHO cells. As for the experimental part: as §2, §3

For a further data set, the system named is ovulation in female rats. The data set can be described thus: standard in vivo rat anti-ovulation test. The arrangement: species or system Sprague-Dawley rats. The settings on record: injected at about noon on the day of proestrus. The protocol: as §1

For `CC(=O)Nc1ccc(C[C@H](NC(=O)[C@H](CO)NC(=O)C(NC(=O)c2cccnc2)NC(=O)[C@@H](Cc2ccc(Cl)cc2)NC(=O)[C@@H](Cc2ccc3ccccc3c2)NC(C)=O)C(=O)N[C@H](Cc2ccc(NC(C)=O)cc2)C(=O)N[C@@H](CC(C)C)C(=O)N[C@@H](CCCCNC(C)C)C(=O)N2CCC[C@H]2C(=O)N[C@H](C)C(N)=O)cc1` (single isomer, unassigned) [Betide No. 1, [Ac-β-D-2NAL^1, (4Cl)D-Phe^2, D/L Agl(nicotinoyl)^3, Aph(Ac)^5, D-Aph(Ac)^6, ILys^8, D-Ala^10]-GnRH], the “tolerance and gelling at the point of injection” value in data set [1] is reported as “very well tolerated, with no significant gelling at the point of injection being detectable”.

For the compound `CC(=O)Nc1ccc(C[C@H](NC(=O)[C@H](CO)NC(=O)[C@@H](Cc2cccnc2)NC(=O)[C@@H](Cc2ccc(Cl)cc2)NC(=O)[C@@H](Cc2ccc3ccccc3c2)NC(C)=O)C(=O)N[C@H](Cc2ccc(NC(C)=O)cc2)C(=O)N[C@@H](CC(C)C)C(=O)N[C@@H](CCCCNC(C)C)C(=O)N2CCC[C@H]2C(=O)N[C@H](C)C(N)=O)cc1` [Acyline, Ac-β-D-2NAL-(4Cl)D-Phe-D-3PAL-Ser-Aph(Ac)D-Aph(Ac)-Leu-ILys-Pro-D-Ala-NH2, reference compound] (Ac-[d2Nal][dPhe(4-Cl)][d3Pal]S[Phe(4-NH2)](Ac)[dPhe(4-NH2)](Ac)L[Lys(iPr)]P[dA]-NH2), the “retention using RP-HPLC (hydrophilicity)” value in data set [2] (gradient 40% to 75% Buffer B over 30 minutes, Buffer A TEAP pH 7.3, Buffer B 60% CH3CN and 40% Buffer A) amounted to 24.1 min.

As for `C[C@@H](O)[C@@H]1NC(=O)[C@H](CCCCN)NC(=O)C(NC(=O)c2ccc3ccccc3c2)NC(=O)[C@H](Cc2ccccc2)NC(=O)[C@H](Cc2ccccc2)NC(=O)[C@@H](N)CSSC[C@@H](C(=O)O)NC(=O)[C@H](Cc2ccccc2)NC1=O` (stereo partly drawn) [Betide No. 7, (cyclo 1-8)H-Cys-Phe-Phe-(2-naphthylamido)Gly-Lys-Thr-Phe-Cys-OH], the IC50 at mSSTR1, at mSSTR2 and at mSSTR3 was more than 1000 nM each time.

With `C[C@@H](O)[C@@H]1NC(=O)[C@H](CCCCN)NC(=O)C(N(C)C(=O)c2ccc3ccccc3c2)NC(=O)[C@H](Cc2ccccc2)NC(=O)[C@H](Cc2ccccc2)NC(=O)[C@@H](N)CSSC[C@@H](C(=O)O)NC(=O)[C@H](Cc2ccccc2)NC1=O` (stereo partly drawn) [Betide No. 7A, (cyclo 1-8)H-Cys-Phe-Phe-(β-methyl-γ-2-naphthyl)D/L(amido)Gly-Lys-Thr- Phe-Cys-OH], the concentration for half-maximal inhibition (IC50) is > 1000 nM and 600 nM on mSSTR1; more than 1000 nM at mSSTR2.

In the case of `C[C@@H](O)[C@@H]1NC(=O)C(NC(=O)CCN)NC(=O)[C@@H](Cc2c[nH]c3ccccc23)NC(=O)[C@H](Cc2ccccc2)NC(=O)[C@H](Cc2ccccc2)NC(=O)[C@@H](N)CSSC[C@@H](C(=O)O)NC(=O)[C@H](Cc2ccccc2)NC1=O` (stereo partly drawn) [Betide No. 8, (cyclo 1-8)H-Cys-Phe-Phe-D-Trp-γ-(2-aminoethyl)amido-glycine-Thr-Phe-Cys-OH], the IC50 on mSSTR1, at mSSTR2 and at mSSTR3 was more than 1000 nM in each case.

On to “Ac-β-D-2NAL-(4Cl)D-Phe-D-3PAL-Ser-(4-Acetyl-amino-benzyl)D/L-amidoGly-D-Aph(acetyl)-Leu-Lys(isopropyl)-Pro-D-Ala-NH2 [Betide No. 4]”, for which the “rats ovulating out of rats treated” value with ovulation in female rats (dosage 5 μg) is 2 out of 8.

“Ac-β-D-2NAL-(4Cl)D-Phe-D-3PAL-Ser-Aph(acetyl)-γ-(4-acetamidophenyl)D/L-amidoGly-Leu-Lys (isopropyl)-Pro-D-Ala-NH2 [Betide No. 5]”: the figures for the “rats ovulating out of rats treated” value with ovulation in female rats (dosage 2.5 μg) and in the data set with ovulation in female rats (dosage 5 μg) were 2 out of 4 and 1 out of 8, respectively.

As to “Ac-β-D-2NAL-(4Cl)D-Phe-D-3PAL-Ser-γ-(4-hydroxyphenyl)D/L-amidoGly-D-Aph(acetyl)-Leu-Lys(isopropyl)-Pro-D-Ala-NH2 [Betide No. 4A]”, the “rats ovulating out of rats treated” value in the data set with ovulation in female rats (dosage 5 μg) is given as 2 out of 16.

For “Ac-β-D-2NAL-(4Cl)D-Phe-D-(3-pyridyl)Ala-Ser-Aph(acetyl)-D-Aph(acetyl)-D/L-Agl(Acetyl)-Lys(isopropyl)-Pro-D-Ala-NH2 [Betide No. 2]”, the “hydrophilicity compared to Acyline” value in data set [2] (RP-HPLC) is given as “more hydrophilic than Acyline”. In addition, the “rats ovulating out of rats treated” value with ovulation in female rats (dosage 5 μg) was 5 out of 8; in the data set on ovulation in female rats (dosage 10 μg), 0 out of 8.

In the case of “[Ac-βCH3 -D-2NAL^1, 4ClD-Phe^2, D-3PAL^3, Aph(atz)^5, D-Aph(atz)^6, ILys^8, D-Ala^10 ]-GnRH [E stereoisomer]”, the “rats ovulating out of rats treated” value in the data set on ovulation in female rats (dosage 1.0 μg) was “partially active”; in the data set with ovulation in female rats (dosage 2.5 μg), “fully active”.
